Test results from patent US7728020B2, “Amino acid derivatives” (Novartis AG, priority 2004, dated 2010).

Tests used:
[1] = target: T1, human S1P receptor EDG-1 (S1P1) (Homo sapiens, UniProt P21453); assay: GTP[γ-35S] binding SPA, S1P receptor profiling (S1P1); format: biochemical; set-up: key to S1P1 mode of action: Agon = agonist; conditions: GTP[γ-35S] SPA
T1 construct: expressed in transfected cells
Protocol: (§1) Sphingosine-1-phosphate (SIP) Receptor Profiling
(§2) Agonist activities of compounds are tested on the human S1P receptors EDG-1 (S1P1), EDG-3 (S1P3), EDG-5 (S1P2), EDG-6 (S1P4) and EDG-8 (S1P5). […] The assay technology used is SPA (scintillation proximity based assay). Briefly, DMSO dissolved compounds are serially diluted and added to SPA-based (Amersham-Pharmacia) immobilised S1P receptor expressing membrane protein (10-20 μg/well) in the presence of 50 mM Hepes, 100 mM NaCl, 10 mM MgCl2, 10 μM GDP, 0.1% fat free BSA and 0.2 nM GTP [γ^35S] (1200 Ci/mmol). After incubation in 96 well microtiterplates at RT for 120 min, unbound GTP [γ^35S] is separated by a centrifugation step. Luminescence of SPA beads triggered by membrane bound GTP [γ^35S] is quantified with a TOPcount plate reader (Packard). EC50s are calculated using standard curve fitting software. In this assay, the compounds of formula I have a binding affinity to S1P1 receptor <50 nM.

[2] = target: T2, human S1P receptor EDG-3 (S1P3) (Homo sapiens, UniProt Q99500); assay: GTP[γ-35S] binding SPA, S1P receptor profiling (S1P3); format: biochemical; set-up: key to S1P3 mode of action: Agon = agonist; conditions: GTP[γ-35S] SPA
T2 construct: expressed in transfected cells
Protocol: as §1, §2

[3] = target: T3, human S1P receptor EDG-6 (S1P4) (Homo sapiens, UniProt O95977); assay: GTP[γ-35S] binding SPA, S1P receptor profiling (S1P4); format: biochemical; set-up: key to S1P4 mode of action: Agon = agonist; conditions: GTP[γ-35S] SPA
T3 construct: expressed in transfected cells
T3 sequence (O95977 1-384): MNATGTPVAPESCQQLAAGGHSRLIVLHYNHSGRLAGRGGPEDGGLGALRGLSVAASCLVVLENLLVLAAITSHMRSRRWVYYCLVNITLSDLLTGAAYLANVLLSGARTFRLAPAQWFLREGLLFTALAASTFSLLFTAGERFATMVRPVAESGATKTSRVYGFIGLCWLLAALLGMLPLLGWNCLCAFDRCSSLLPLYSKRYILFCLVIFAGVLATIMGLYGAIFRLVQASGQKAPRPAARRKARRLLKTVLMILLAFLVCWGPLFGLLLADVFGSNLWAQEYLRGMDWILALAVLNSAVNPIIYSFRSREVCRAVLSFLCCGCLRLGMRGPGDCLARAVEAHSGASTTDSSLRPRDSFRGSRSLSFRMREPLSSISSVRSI
Protocol: as §1, §2

[4] = target: T4, human S1P receptor EDG-8 (S1P5) (Homo sapiens, UniProt Q9H228); assay: GTP[γ-35S] binding SPA, S1P receptor profiling (S1P5); format: biochemical; set-up: key to S1P5 mode of action: Agon = agonist; conditions: GTP[γ-35S] SPA
T4 construct: expressed in transfected cells
Protocol: as §1, §2

[5] = tested on: peripheral blood lymphocytes; assay: Blood lymphocyte depletion; format: in vivo; conditions: rats, 3.2 mg/kg p.o. after 6 h
Protocol: B. In vivo: Blood Lymphocyte Depletion
A compound of formula I or the vehicle is administered orally by gavage to rats. Tail blood for hematological monitoring is obtained on day −1 to give the baseline individual values, and at 2, 6, 24, 48 and 72 hours after application. In this assay, the compounds of formula I deplete peripheral blood lymphocytes when administered at a dose of 0.03 to 3 mg/kg. For example, following results are obtained: depletion of peripheral blood lymphocytes by more than 50%.

[6] = membranes of transfected CHO or RH7777 cells

T4 sequence (Q9H228 whole entry): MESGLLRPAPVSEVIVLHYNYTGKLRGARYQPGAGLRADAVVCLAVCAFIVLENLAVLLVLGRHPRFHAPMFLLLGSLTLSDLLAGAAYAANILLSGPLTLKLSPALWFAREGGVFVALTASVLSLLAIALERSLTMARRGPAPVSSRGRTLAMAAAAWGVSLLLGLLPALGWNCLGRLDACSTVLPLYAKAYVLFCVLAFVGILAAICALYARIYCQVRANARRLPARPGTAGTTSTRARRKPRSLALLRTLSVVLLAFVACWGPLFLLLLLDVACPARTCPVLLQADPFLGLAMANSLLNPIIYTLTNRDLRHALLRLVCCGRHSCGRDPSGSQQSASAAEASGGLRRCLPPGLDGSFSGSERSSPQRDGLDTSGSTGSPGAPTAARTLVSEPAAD
T2 sequence (Q99500 whole entry): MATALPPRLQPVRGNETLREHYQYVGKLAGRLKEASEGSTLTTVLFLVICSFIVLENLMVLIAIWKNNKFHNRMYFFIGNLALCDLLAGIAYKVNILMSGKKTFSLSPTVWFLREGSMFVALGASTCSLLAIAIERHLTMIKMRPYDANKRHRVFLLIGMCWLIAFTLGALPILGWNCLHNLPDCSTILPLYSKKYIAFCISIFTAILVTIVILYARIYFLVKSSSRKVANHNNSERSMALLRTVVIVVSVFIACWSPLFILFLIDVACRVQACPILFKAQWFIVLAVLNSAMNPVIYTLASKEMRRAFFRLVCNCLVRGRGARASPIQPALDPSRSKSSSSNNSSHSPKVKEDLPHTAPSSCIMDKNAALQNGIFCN
T1 sequence (P21453 whole entry): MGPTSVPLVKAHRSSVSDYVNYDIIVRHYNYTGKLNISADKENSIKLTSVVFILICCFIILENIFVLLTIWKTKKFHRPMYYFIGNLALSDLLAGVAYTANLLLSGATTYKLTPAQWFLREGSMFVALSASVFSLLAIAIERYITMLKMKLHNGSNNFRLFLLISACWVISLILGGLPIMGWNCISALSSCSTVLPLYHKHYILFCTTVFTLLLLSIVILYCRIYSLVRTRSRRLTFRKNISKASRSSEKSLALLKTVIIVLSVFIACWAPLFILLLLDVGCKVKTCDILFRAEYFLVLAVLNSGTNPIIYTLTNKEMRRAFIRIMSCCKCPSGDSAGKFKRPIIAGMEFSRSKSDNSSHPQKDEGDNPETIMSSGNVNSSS

In the case of `CCCCCCCOc1ccc(CC[C@@](C)(N)CC(=O)O)cc1` [Example 1, (R)-3-Amino-5-(4-heptyloxy-phenyl)-3-methyl-pentanoic acid], the “S1P1 mode of action” value [1] is reported as “Agon”, the EC50 [1, 6] is reported as 11 nM and the “S1P3 mode of action” value [2] is reported as “Agon”. For the same molecule, the EC50 [2, 6] was 209 nM, the “S1P4 mode of action” value [3] was “Agon” and the EC50 [3, 6] was 117 nM. The “S1P5 mode of action” value [4] was “Agon”, the EC50 [4, 6] was 203 nM and the “depletion of peripheral blood lymphocytes” value [5] was “more than 50%”.
